Experimental data: patent US20260317324A1, “BIFUNCTIONAL COMPOUNDS FOR DEGRADING BRAF VIA UBIQUITIN PROTEOSOME PATHWAY” (Nurix Therapeutics, Inc., priority 2023, published 2026)

Key:
Assay type in all cases: cell-based
[1] = molecular target: T1, BRAF G469A (Homo sapiens, UniProt P15056, G469A); assay: BRAF HiBiT degradation assay, C-terminal HiBiT-tagged BRAF G469A overexpressed in HCT-116 BRAF−/− cells (clone 34), Nano-Glo HiBiT Lytic assay
T1 construct: Horizon Discovery (HCT-116 BRAF−/− cells); host or cells: HCT-116 BRAF−/− cells, clone 34, lentiviral transduction
T1 sequence (P15056 whole entry G469A): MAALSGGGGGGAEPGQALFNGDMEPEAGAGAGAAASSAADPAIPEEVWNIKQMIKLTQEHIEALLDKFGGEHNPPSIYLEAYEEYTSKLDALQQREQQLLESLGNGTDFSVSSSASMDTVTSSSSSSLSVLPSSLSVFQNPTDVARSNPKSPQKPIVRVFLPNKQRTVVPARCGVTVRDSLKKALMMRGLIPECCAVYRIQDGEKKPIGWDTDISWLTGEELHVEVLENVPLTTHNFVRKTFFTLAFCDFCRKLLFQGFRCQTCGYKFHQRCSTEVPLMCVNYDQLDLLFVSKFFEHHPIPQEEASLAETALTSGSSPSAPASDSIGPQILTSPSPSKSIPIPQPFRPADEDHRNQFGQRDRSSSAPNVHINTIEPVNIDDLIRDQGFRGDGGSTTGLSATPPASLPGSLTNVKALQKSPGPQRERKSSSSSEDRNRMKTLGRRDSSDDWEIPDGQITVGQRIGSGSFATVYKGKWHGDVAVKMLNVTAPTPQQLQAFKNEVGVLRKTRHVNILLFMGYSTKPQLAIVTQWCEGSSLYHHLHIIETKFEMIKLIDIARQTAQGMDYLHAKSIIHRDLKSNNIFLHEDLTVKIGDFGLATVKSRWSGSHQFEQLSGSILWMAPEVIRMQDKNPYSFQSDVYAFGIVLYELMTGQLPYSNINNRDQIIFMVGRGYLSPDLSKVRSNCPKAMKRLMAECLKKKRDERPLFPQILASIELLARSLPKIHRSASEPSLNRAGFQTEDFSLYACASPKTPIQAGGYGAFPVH
Summary of the method: (§1)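 Degradation assay in HCT-116 BRAF−/− cells carrying lentiviral HiBiT-tagged mutant BRAF. The readout is % protein remaining across 1 μM to 0.01 nM compound, and DC50 marks 50% remaining.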

[2] = molecular target: T2, BRAF V600E (Homo sapiens, UniProt P15056, V600E); assay: BRAF HiBiT degradation assay, C-terminal HiBiT-tagged BRAF V600E A375 cells (clone 1F10), Nano-Glo HiBiT Lytic assay; conditions: for Dmax: A-375
T2 construct: endogenous C-terminal HiBiT fusion tag on BRAF V600E allele; endogenous in cells; host or cells: A375 clone 1F10 (CRISPR-Cas9 knock-in of the HiBiT tag; parental A375 from ATCC)
T2 sequence (P15056 whole entry V600E, the tested form may be a part): as the sequence (P15056 whole entry G469A) above, with A469G, V600E counted along it
Summary of the method: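 Using CRISPR-engineered A375 cells that carry a C-terminal HiBiT tag on endogenous BRAF V600E, remaining protein was quantified by lytic luminescence relative to DMSO-treated cells, with wildtype A375 as the background control. DC50 denotes the concentration giving 50% degradation.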

[3] = molecular target: T3, BRAF D594G (Homo sapiens, UniProt P15056, D594G); assay: BRAF HiBiT degradation assay, C-terminal HiBiT-tagged BRAF D594G overexpressed in HCT-116 BRAF−/− cells (clone 63), Nano-Glo HiBiT Lytic assay
T3 construct: Horizon Discovery (HCT-116 BRAF−/− cells); host or cells: HCT-116 BRAF−/− cells, clone 63, lentiviral transduction
T3 sequence (P15056 whole entry D594G): as the sequence (P15056 whole entry G469A) above, with A469G, D594G counted along it
Summary of the method: as §1

[4] = molecular target: T4, BRAF G466V (Homo sapiens, UniProt P15056, G466V); assay: BRAF HiBiT degradation assay, C-terminal HiBiT-tagged BRAF G466V overexpressed in HCT-116 BRAF−/− cells (clone 8), Nano-Glo HiBiT Lytic assay
T4 construct: Horizon Discovery (HCT-116 BRAF−/− cells); host or cells: HCT-116 BRAF−/− cells, clone 8, lentiviral transduction
T4 sequence (P15056 whole entry G466V): as the sequence (P15056 whole entry G469A) above, with G466V, A469G counted along it
Summary of the method: as §1

[5] = BRAF G469A (Class 2), HCT-116 BRAF−/− cells, DC50 at 50% degradation
[6] = BRAF G469A (Class 2), HCT-116 BRAF−/− cells, observed Dmax relative to DMSO control
[7] = A375 (BRAF V600E, Class 1), DC50 at 50% degradation
[8] = A375 (BRAF V600E, Class 1), observed Dmax, % protein degraded relative to DMSO control
[9] = BRAF D594G (Class 3), HCT-116 BRAF−/− cells, DC50 at 50% degradation
[10] = BRAF D594G (Class 3), HCT-116 BRAF−/− cells, observed Dmax relative to DMSO control
[11] = BRAF G466V (Class 3), HCT-116 BRAF−/− cells, DC50 at 50% degradation
[12] = BRAF G466V (Class 3), HCT-116 BRAF−/− cells, observed Dmax relative to DMSO control
[13] = Class 2, BRAF G469A, DC50 at 50%: fitted conc. at Y=50
[14] = HCT-116, Class 2, BRAF G469A, percentage protein degraded at maximal compound effect relative to DMSO
[15] = A375 (BRAF V600E), DC50 at 50%: fitted conc. at Y=50
[16] = A375 (BRAF V600E), percentage protein degraded at maximal compound effect relative to DMSO
[17] = BRAF D594G, DC50 at 50%: fitted conc. at Y=50
[18] = HCT-116, BRAF D594G, percentage protein degraded at maximal compound effect relative to DMSO
[19] = BRAF G466V, DC50 at 50%: fitted conc. at Y=50
[20] = HCT-116, BRAF G466V, percentage protein degraded at maximal compound effect relative to DMSO

DC50 [1, 5]	Dmax [1, 6]	DC50 [2, 7]	Dmax [2, 8]	DC50 [3, 9]	Dmax [3, 10]	DC50 [4, 11]	Dmax [4, 12]	DC50 [1, 13]	Dmax [1, 14]	DC50 [2, 15]	Dmax [2, 16]	DC50 [3, 17]	Dmax [3, 18]	DC50 [4, 19]	Dmax [4, 20]	SMILES
< 10 nM	> 70%	< 10 nM	> 70%	< 10 nM	> 70%	< 10 nM	> 70%									O=C1CCC(c2ccc(N3CCC(CN4CCN(c5ccc(-n6cc(-c7cc(Cl)cc(NS(=O)(=O)N8CCCC8)c7F)c(-c7ccncc7)n6)cc5F)CC4)CC3)nc2)C(=O)N1 (racemic) [Compound 363, Rac-N-{5-chloro-3-[1-(4-{4-[(1-{5-[(3R)-2,6-dioxopiperidin-3-yl]pyridin-2-yl}piperidin-4-yl)methyl]piperazin-1-yl}-3-fluorophenyl)-3-(pyridin-4-yl)-1H-pyrazol-4-yl]-2-fluorophenyl}pyrrolidine-1-sulfonamide]
								> 500 nM	< 30%	< 10 nM	30 to 70%	> 500 nM	30 to 70%	> 500 nM	< 30%	CCCS(=O)(=O)Nc1cccc(-c2nc(C(C)(C)C)sc2-c2ccnc(Nc3cnn(CC4CCN(C(=O)C[C@@H]5CCN(c6ccc(C7CCC(=O)NC7=O)cc6)C5)CC4)c3)n2)c1F (mixture of isomers) [Compound 112, N-(3-{2-tert-butyl-5-[2-({1-[(1-{2-[(3S)-1-{4-[(3RS)-2,6-dioxopiperidin-3-yl]phenyl}pyrrolidin-3-yl]acetyl}piperidin-4-yl)methyl]-1H-pyrazol-4-yl}amino)pyrimidin-4-yl]-1,3-thiazol-4-yl}-2-fluorophenyl)propane-1-sulfonamide]
								> 500 nM	< 30%	50 to 500 nM	> 70%	> 500 nM	30 to 70%	> 500 nM	30 to 70%	CCCS(=O)(=O)Nc1cccc(-c2nc(C3CCN(C(=O)C4CCN(CC5CCN(c6ccc(C7CCC(=O)NC7=O)cn6)CC5)CC4)CC3)sc2-c2ccncc2)c1F (racemic) [Compound 211, Rac-N-{3-[2-(1-{1-[(1-{5-[(3R)-2,6-dioxopiperidin-3-yl]pyridin-2-yl}piperidin-4-yl)methyl]piperidine-4-carbonyl}piperidin-4-yl)-5-(pyridin-4-yl)-1,3-thiazol-4-yl]-2-fluorophenyl}propane-1-sulfonamide]
> 500 nM	< 30%	50 to 500 nM	> 70%	> 500 nM	30 to 70%	> 500 nM	30 to 70%									CCCS(=O)(=O)Nc1cccc(-c2nc(C3CCN(C(=O)CC4CCN(C5CCN(c6ccc7c(c6)C(=O)N(C6CCC(=O)NC6=O)C7=O)CC5)CC4)CC3)sc2-c2ccnc(N)n2)c1F (racemic) [Compound 250, Rac-N-{3-[5-(2-aminopyrimidin-4-yl)-2-{1-[2-(1′-{2-[(3R)-2,6-dioxopiperidin-3-yl]-1,3-dioxo-2,3-dihydro-1H-isoindol-5-yl}-[1,4′-bipiperidin]-4-yl)acetyl]piperidin-4-yl}-1,3-thiazol-4-yl]-2-fluorophenyl}propane-1-sulfonamide]
								> 500 nM	< 30%	10 to 50 nM	> 70%	> 500 nM	30 to 70%	> 500 nM	30 to 70%	CCCS(=O)(=O)Nc1cccc(-c2nc(C(C)(C)C)sc2-c2ccnc(Nc3cccc(OC4CCN(CC[C@H]5CCN(c6ccc(C7CCC(=O)NC7=O)cn6)C5)CC4)c3)n2)c1F (mixture of isomers) [Compound 69, N-(3-{2-tert-butyl-5-[2-({3-[(1-{2-[(3S)-1-{5-[(3RS)-2,6-dioxopiperidin-3-yl]pyridin-2-yl}pyrrolidin-3-yl]ethyl}piperidin-4-yl)oxy]phenyl}amino)pyrimidin-4-yl]-1,3-thiazol-4-yl}-2-fluorophenyl)propane-1-sulfonamide]
< 10 nM	> 70%	< 10 nM	> 70%	< 10 nM	> 70%	< 10 nM	> 70%									O=C1CCC(c2ccc(N3CCC(CN4CCN(c5ccc(-n6cc(-c7cc(Cl)cc(NS(=O)(=O)N8CCCC8)c7F)c(-c7ccncc7)n6)cc5)CC4)CC3)nc2)C(=O)N1 (racemic) [Compound 265, Rac-(R)—N-(5-chloro-3-(1-(4-(4-((1-(5-(2,6-dioxopiperidin-3-yl)pyridin-2-yl)piperidin-4-yl)methyl)piperazin-1-yl)phenyl)-3-(pyridin-4-yl)-1H-pyrazol-4-yl)-2-fluorophenyl)pyrrolidine-1-sulfonamide]
								> 500 nM	< 30%	10 to 50 nM	> 70%	> 500 nM	30 to 70%	> 500 nM	30 to 70%	CCCS(=O)(=O)Nc1cccc(-c2nc(C3CCN(C(=O)C4CCN(CC5CCN(c6ccc(C7CCC(=O)NC7=O)cn6)CC5)CC4)CC3)sc2-c2ccnc(NC)n2)c1F (racemic) [Compound 217, Rac-N-{3-[2-(1-{1-[(1-{5-[(3R)-2,6-dioxopiperidin-3-yl]pyridin-2-yl}piperidin-4-yl)methyl]piperidine-4-carbonyl}piperidin-4-yl)-5-[2-(methylamino)pyrimidin-4-yl]-1,3-thiazol-4-yl]-2-fluorophenyl}propane-1-sulfonamide]
< 10 nM	> 70%	< 10 nM	> 70%	< 10 nM	30 to 70%	< 10 nM	> 70%									CCCS(=O)(=O)Nc1cc(Cl)cc(-c2cn(-c3ccc(N4CCN(CC5CCN(c6ccc(C7CCC(=O)NC7=O)cn6)CC5)[C@H](C)C4)cc3)nc2-c2ccncc2)c1F (mixture of isomers) [Compound 276, N-[5-chloro-3-(1-{4-[(3R)-4-[(1-{5-[(3RS)-2,6-dioxopiperidin-3-yl]pyridin-2-yl}piperidin-4-yl)methyl]-3-methylpiperazin-1-yl]phenyl}-3-(pyridin-4-yl)-1H-pyrazol-4-yl)-2-fluorophenyl]propane-1-sulfonamide]
> 500 nM	< 30%	< 10 nM	> 70%	10 to 50 nM	30 to 70%	< 10 nM	30 to 70%									O=C1CCN(c2ccc(N3CCC(CN4CCN(c5ccc(-n6cc(-c7cc(Cl)cc(NS(=O)(=O)N8CC(F)C8)c7F)c(-c7ccncc7)n6)c(F)c5)CC4)CC3)cc2)C(=O)N1 [Compound 339, N-[5-chloro-3-(1-{4-[4-({1-[4-(2,4-dioxo-1,3-diazinan-1-yl)phenyl]piperidin-4-yl}methyl)piperazin-1-yl]-2-fluorophenyl}-3-(pyridin-4-yl)-1H-pyrazol-4-yl)-2-fluorophenyl]-3-fluoroazetidine-1-sulfonamide]
< 10 nM	> 70%	< 10 nM	> 70%	< 10 nM	> 70%	< 10 nM	> 70%									O=C1CC[C@H](c2ccc(N3CCC(CN4CCN(c5ccc(-n6cc(-c7cc(Cl)cc(NS(=O)(=O)N8CC[C@@H](F)C8)c7F)c(-c7ccncc7)n6)cc5)CC4)CC3)nc2)C(=O)N1 [Compound 264, (R)—N-(5-chloro-3-(1-(4-(4-((1-(5-((R)-2,6-dioxopiperidin-3-yl)pyridin-2-yl)piperidin-4-yl)methyl)piperazin-1-yl)phenyl)-3-(pyridin-4-yl)-1H-pyrazol-4-yl)-2-fluorophenyl)-3-fluoropyrrolidine-1-sulfonamide]
